Source: publication PMC6382835, “A critical evaluation of TRPA1-mediated locomotor behavior in zebrafish as a screening tool for novel anti-nociceptive drug discovery” (Scientific Reports, 2019)

Target: T1, zebrafish TRPA1b (zTRPA1b) (Danio rerio, UniProt A0A8M1N2Z4)
T1 sequence (A0A8M1N2Z4 1-1120): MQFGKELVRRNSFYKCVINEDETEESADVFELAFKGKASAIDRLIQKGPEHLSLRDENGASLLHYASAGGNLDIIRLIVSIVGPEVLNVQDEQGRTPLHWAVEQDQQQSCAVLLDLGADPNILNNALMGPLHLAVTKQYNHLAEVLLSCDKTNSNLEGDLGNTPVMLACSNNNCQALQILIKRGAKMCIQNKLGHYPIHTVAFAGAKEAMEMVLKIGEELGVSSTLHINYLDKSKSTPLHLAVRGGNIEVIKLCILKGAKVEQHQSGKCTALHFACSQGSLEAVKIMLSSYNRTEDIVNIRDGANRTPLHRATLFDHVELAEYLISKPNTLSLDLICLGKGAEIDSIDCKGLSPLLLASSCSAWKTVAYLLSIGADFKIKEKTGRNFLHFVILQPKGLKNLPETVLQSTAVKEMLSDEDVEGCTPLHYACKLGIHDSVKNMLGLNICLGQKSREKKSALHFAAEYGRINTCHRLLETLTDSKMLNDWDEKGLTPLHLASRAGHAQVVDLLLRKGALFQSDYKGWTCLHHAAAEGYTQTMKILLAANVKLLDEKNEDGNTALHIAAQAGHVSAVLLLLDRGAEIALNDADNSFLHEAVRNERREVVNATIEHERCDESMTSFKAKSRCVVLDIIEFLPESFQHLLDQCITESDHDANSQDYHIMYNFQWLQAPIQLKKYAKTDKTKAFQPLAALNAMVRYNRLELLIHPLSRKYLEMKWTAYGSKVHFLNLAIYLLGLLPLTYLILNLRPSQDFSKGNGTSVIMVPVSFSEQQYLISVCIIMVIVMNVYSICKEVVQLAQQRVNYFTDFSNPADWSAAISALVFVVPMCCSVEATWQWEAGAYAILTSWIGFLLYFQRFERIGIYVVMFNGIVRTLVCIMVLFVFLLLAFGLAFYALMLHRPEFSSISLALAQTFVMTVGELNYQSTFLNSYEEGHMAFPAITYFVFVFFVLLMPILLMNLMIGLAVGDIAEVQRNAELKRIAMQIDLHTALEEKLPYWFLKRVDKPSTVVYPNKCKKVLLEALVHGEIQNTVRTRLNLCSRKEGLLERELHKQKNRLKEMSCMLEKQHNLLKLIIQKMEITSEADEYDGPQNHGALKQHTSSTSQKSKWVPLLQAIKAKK
Test: FLIPR calcium signaling assay in zTRPA1b-transfected HEK293 cells
Assay type: cell-based
Details: for EC50: agonist calcium influx, zTRPA1b-transfected HEK293, read-out: EC50 (potency in µM)
Description: The cells were maintained in a 37 °C incubator with consistent 5% CO2. […] Experiments were carried out with the approval of the Institutional Biohazard Committee (#13-013-16).
Twenty-five µl calcium sensitive Fluorescent Imaging Plate Reader (FLIPR) Calcium 6 assay dye (#R8190, Molecular Devices, CA, USA) was added to each well of a 384-well plate containing HEK293 cells transiently expressing mTRPA1, zTRPA1a, and zTRPA1b, respectively. The cells were incubated for an hour prior to the recording of intracellular calcium levels in a FlexStation3 Multi-Mode Microplate Reader (#R8190, Molecular Devices) as previously described. […] During the assay, the cells were challenged by a 5x ASP7663 solution or 1% DMSO solution at the 20 seconds time point, and both solutions were diluted in calcium buffer. Relative fluorescence units (RFU) were measured for 120 seconds period by the Flexstation. […] For each specific antagonist concentration we plotted Log(dose ratio-1) against the antagonist concentration in a Schild plot. The dose ratio (A’/A) equals the EC50 of the agonist (ASP7665) in the presence of a concentration of the antagonist (A’) divided by the EC50 of the agonist in the absence of antagonist (A). The x-intercept of the Schild plot was used to identify the antagonist-receptor affinity (pA2).
All data are presented as means ± standard error of the mean (SEM). For our in vitro statistical analysis, AUC of calcium influx (RFU) was measured to plot dose-response curves, which were further analyzed by nonlinear regression analysis. Mean RFU of the first 10 seconds was used as a baseline of the AUC. EC50 values of the dose-response curves were further used to plot Schild curves, and the curves were analyzed with linear regression analysis. For the mice von Frey test, mechanical thresholds were analyzed with two-way ANOVA followed by a Bonferonni test for multiple comparison analysis. For the zebrafish behavior test, the data from the first five seconds following drug administration were excluded, as zebrafish displacement during that period was highly influenced by liquid dispensing. AUC of all curves were measured and analyzed by one-way ANOVA. The post-hoc analysis was conducted with the Tukey’s or Dunnett’s multiple comparisons unless it stated otherwise. […] For our time-course average displacement graph, we used 2nd degree polynomial smoothing for a better representation; however, we used data before smoothing for all statistical analysis and quantification. All in vitro and in vivo data were evaluated using GraphPad Prism 7 (GraphPad Software, La Jolla, CA) unless it stated otherwise.

Structure (SMILES)	EC50	calcium influx by antagonist alone (316 µM, zTRPA1b-transfected cells)	pA2 expressed in µM (Schild plot against ASP7663-mediated calcium influx, zTRPA1b)	pA2 (Schild plot against ASP7663-mediated calcium influx, zTRPA1b, only two antagonist doses)	Schild slope (zTRPA1b, n = 2)
C=CCN=C=S [AITC, allyl isothiocyanate]	35.4 µM				
CC(C)c1ccc(NC(=O)Cn2cnc3c2c(=O)n(C)c(=O)n3C)cc1 [HC-030031]		could produce an influx of intracellular calcium	27.1 µM	4.6 ± 0.3	0.83 ± 0.05
CC(C)CN1C(=O)/C(=C/C(=O)O)c2cccc(F)c21 [ASP7663]	99 µM				
